In one experiment the test system is CHO‐TET‐ON‐Z‐A1AT cells. The experiment can be described thus: Tunicamycin sensitivity, cell viability (Cell Counting Kit‐8), cells expressing Z α1‐antitrypsin. In kind it is cell-based. The settings on record: 10 μM GSK716, cells expressing Z α1‐antitrypsin, tunicamycin 36 h. As for the experimental part: Figure 2 GSK716 inhibits polymerisation of Z α1‐antitrypsin in cell models of disease • A GSK716 was added to CHO‐TET‐ON‐Z‐A1AT cells (Ordóñez et al, 2013) with simultaneous induction of Z α1‐antitrypsin expression using doxycycline, and polymer load was quantified with the 2C1 monoclonal antibody that is specific to pathological polymers of α1‐antitrypsin (Miranda et al, 2010). […] Data were normalised to vehicle and a control compound from the GSK716 series at saturating concentration. […] It induced an approximately threefold increase in secreted levels of Z α1‐antitrypsin compared with vehicle control. This was apparent even after polymers had been allowed to form. Scale bar: 100 µm. Data presented as mean ± SD, n = 8 (secretion) and n = 6 (polymer inhibition). • E CHO tetracycline‐inducible cells expressing Z α1‐antitrypsin were induced with 0.5 μg/ml doxycycline for 48 h and treated with 10 μM GSK716. […] For every time point, NP‐40‐soluble and NP‐40‐insoluble fractions were separated and immunoprecipitated with the 2C1 mAb and resolved by 4–12% w/v SDS–PAGE and α1‐antitrypsin detected by immunoblotting. […] Cell viability was measured by Cell Counting Kit‐8. […] Samples were resolved by 4–12% w/v acrylamide SDS–PAGE and detected by autoradiography. • H The graphs show the effect of GSK716 on intracellular and extracellular Z α1‐antitrypsin (mean ± SEM, n = 2). […]
For orientation: Tetrazolium dyes change colour on reduction, which living cells bring about.

In another experiment the target is OPRM1 (Homo sapiens, UniProt P35372). The experiment can be described thus: Off‐target panel: OPRM1 (DRX). The format is cell-based. The method, then: (§1) GSK716 selectivity and PK properties were profiled in order to investigate the suitability of GSK716 for progression into in vivo studies and the potential for taking it forward as a clinical candidate for testing in humans. Since GSK716 results in loss of inhibitory activity of α1‐antitrypsin, the effect of the compound was assessed on other closely related serpins. […] Furthermore, there were no off‐target effects in a panel of assays considered predictive of known safety liabilities that precluded further development of GSK716 (Table EV1).

The target of another experiment is T1, Muscarinic M2 (Homo sapiens, UniProt P08172).
T1 sequence (P08172 1-466): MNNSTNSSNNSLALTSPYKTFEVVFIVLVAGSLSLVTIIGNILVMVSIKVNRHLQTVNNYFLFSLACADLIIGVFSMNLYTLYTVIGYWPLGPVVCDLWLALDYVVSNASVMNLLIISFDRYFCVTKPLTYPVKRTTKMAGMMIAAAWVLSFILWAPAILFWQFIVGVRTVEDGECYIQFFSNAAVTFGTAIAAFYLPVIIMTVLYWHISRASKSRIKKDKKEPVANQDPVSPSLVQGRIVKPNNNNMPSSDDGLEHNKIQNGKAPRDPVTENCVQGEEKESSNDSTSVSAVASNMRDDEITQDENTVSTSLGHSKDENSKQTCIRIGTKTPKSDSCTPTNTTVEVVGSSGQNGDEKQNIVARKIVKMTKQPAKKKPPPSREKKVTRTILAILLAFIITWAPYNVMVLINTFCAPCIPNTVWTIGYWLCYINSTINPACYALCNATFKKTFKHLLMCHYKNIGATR
Description: Off‐target panel: Muscarinic M2. The format is cell-based. As for the experimental part:
as §1

The target in a further experiment is Adrenergic β2 (Homo sapiens, UniProt P07550). Description: Off‐target panel: Adrenergic β2 (DRX). The format is cell-based. To be noted: read-out: Mean (PXC50). The method, then: as §1
The next experiment has as its system serum albumin. The experiment can be described thus: Circulating serum albumin in Z α1‐antitrypsin transgenic mice. In kind it is in vivo, mouse. The settings on record: after 5 days of dosing. The method, then: A significant fraction of the total Z α1‐antitrypsin in the circulation is in the polymeric conformation (Tan et al, 2014). There are no antibodies that are specific for monomeric Z α1‐antitrypsin and so to directly determine its concentration, a deconvolution method was developed based on immunoassays with antibodies for either total or polymeric α1‐antitrypsin, and calibration curves with purified monomeric and polymeric Z α1‐antitrypsin. Monomeric Z α1‐antitrypsin was measured in plasma samples following 6 days of dosing, and levels were normalised to each animals’ pre‐dose control levels to account for the natural variation of Z α1‐antitrypsin between animals. […] Total drug levels and changes in Z α1‐antitrypsin following 3 days of dosing were indistinguishable from those following 6 days of dosing. There was no effect on circulating serum albumin after 5 days of dosing which provides evidence that GSK716 is specific for Z α1‐antitrypsin. Moreover, the effects are not mediated by metabolites of GSK716 as the major metabolites have much reduced or no binding to α1‐antitrypsin.

Sequence of Adrenergic β2 (P07550 whole entry): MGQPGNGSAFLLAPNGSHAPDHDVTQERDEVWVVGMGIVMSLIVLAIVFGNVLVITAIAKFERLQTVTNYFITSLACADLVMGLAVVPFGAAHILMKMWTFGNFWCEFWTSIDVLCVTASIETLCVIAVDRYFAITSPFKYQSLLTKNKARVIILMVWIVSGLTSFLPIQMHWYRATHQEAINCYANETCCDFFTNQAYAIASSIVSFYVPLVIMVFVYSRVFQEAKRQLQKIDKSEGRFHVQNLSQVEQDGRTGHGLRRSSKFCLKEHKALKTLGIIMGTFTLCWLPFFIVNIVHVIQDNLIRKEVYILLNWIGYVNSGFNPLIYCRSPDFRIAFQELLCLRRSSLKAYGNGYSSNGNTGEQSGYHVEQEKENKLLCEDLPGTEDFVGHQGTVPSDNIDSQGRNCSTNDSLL
Sequence of OPRM1 (P35372 whole entry, species assumed): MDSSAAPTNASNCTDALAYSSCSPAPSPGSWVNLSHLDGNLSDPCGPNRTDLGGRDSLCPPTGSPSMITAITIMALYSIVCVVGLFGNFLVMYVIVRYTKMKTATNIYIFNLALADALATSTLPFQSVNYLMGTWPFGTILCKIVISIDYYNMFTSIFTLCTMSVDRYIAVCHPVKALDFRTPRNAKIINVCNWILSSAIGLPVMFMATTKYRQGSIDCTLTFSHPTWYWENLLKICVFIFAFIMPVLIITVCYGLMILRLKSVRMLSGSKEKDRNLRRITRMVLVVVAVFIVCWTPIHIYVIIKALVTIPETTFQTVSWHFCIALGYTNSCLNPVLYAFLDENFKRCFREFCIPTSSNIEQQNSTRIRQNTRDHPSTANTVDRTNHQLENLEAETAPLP

In the case of `CCC[C@@H](NC(=O)c1cccc2c1CC(=O)N2)[C@@H](O)c1cccc(F)c1C` [GSK716], the “sensitivity to tunicamycin (cell viability)” value with CHO‐TET‐ON‐Z‐A1AT cells was “restored sensitivity of Z α1‐antitrypsin expressing cells to that of the wild‐type control cells”. The values for the EC50 at OPRM1, on Muscarinic M2 and on Adrenergic β2 (Agonist) were 10 µM, over 50.1 µM and over 100 µM, respectively. Besides, the IC50 against Muscarinic M2 is over 50.1 µM; on Adrenergic β2 (Antagonist), over 100 µM. The “effect on circulating serum albumin” value in the experiment on serum albumin is listed as “no effect”.
